Converted amounts (≈) assume the structure as drawn.
What was measured:
E. coli = conditions: CA in solution; cited from earlier work
P. aeruginosa S20930 = experiment: Viability loss of P. aeruginosa, PI/DAPI fluorescence assay; type: cell-based, Pseudomonas aeruginosa
Method: (§1) The model organisms were Escherichia coli S20918 (E. coli) and P. aeruginosa S20930 (P. aeruginosa), purchased from Thermo Fisher Scientific, Waltham, Mass. The bacteria were grown in LB at 37.0 and harvested at a concentration of 10^8 cells/mL. To remove residual macromolecules and other growth medium constituents, cells were washed twice and then resuspended in an isotonic solution (0.9% NaCl, pH 5.7). This isotonic solution was used for E. coli and P. aeruginosa loss of viability studies.
Viability loss of P. aeruginosa in contact with chitosan/CA(0, 0.5, and 5.0%)/PEO nanofiber mats was determined using a previously described fluorescence assay.^33 Electrospun mats (20 mm×10 mm) were placed at the bottom of 35 mm×10 mm petri dishes (Becton, Dickinson & Co., Franklin Lakes, N.J.) to which the cells (10^7 cells/mL) resuspended in an isotonic solution were added and diluted by a factor of 2. The cells were incubated at 37° C. for various times (30, 90, and 180 min). […] Fluorescence images were acquired to detect the cells utilizing an epifluorescence microscope (Olympus) with a Chroma cube filter. […] Dead cells and the total number of cells were determined by direct cell counting. […] Throughout the Results and Discussion section, all statistical differences were determined using an unpaired t-test with values of p≦0.05 considered to be statistically significant.

Escherichia coli S20918 = experiment: Viability loss of E. coli, modified ASTM E2149-01 shake flask method; type: cell-based; conditions: 3 mM CA solution
Method: as §1
The viability loss of E. coli in contact with chitosan/CA(0, 0.5, and 5.0%)/PEO nanofiber mats was assayed according to a modified ASTM E2149-01 shake flask method.^30 In parallel to each experiment (i) a blank control (no nanofiber mat) and (ii) an MIC control of CA for E. coli (3 mM CA in solution) were employed.^19 Electrospun mats (10 mm×20 mm) were placed into culture tubes (16 mm×125 mm) along with 4 mL suspensions of E. coli or P. aeruginosa (5×10^6 cells/mL) in an isotonic solution (0.9% NaCl, pH 5.7). The suspensions were shaken at 200 rpm in an orbital shaker maintained at 37° C. At 30, 90, and 180 minutes, 100 μL were pipetted out from the tubes and serial dilutions were plated onto LB plates using the spread plate method.^30-32 After 24 hr incubation on agar plates, the number of viable bacteria was counted. The number of viable cells was multiplied by the dilution factor and expressed as the mean colony forming unit (CFU) per mL. The percent reduction of bacteria resulting from contact with the nanofiber mats was determined using Equation 1 where A represents the mean log10 density of bacteria for the flask containing the treated substrate after the specified contact time and B represents the untreated substrate after the specified contact time.

O=CC=Cc1ccccc1 [CA, cinnamaldehyde]
MIC (E. coli): 3000 µM (≈ 396 µg/mL)
P. aeruginosa inactivation, statistical comparison (P. aeruginosa S20930; after 30 min): statistically equivalent
P. aeruginosa inactivation, statistical comparison (P. aeruginosa S20930; at 90 min): statistically equivalent level as the chitosan/CA(0.5 and 5.0%)/PEO nanofiber mats
E. coli inactivation compared with blank control (Escherichia coli S20918; no nanofiber mat): statistically inactivated more E. coli than the blank control
antibacterial activity against E. coli compared with nanofiber mats (Escherichia coli S20918; after 30 and 180 min): statistically lower level of antibacterial activity
antibacterial activity against E. coli compared with nanofiber mats (Escherichia coli S20918; at 90 min): statistically equivalent to the chitosan/CA(0.5%)/PEO nanofiber mats
